Here are results for 27 compounds from paper PMC10385824, “Antiproliferative and Tubulin-Destabilising Effects of 3-(Prop-1-en-2-yl)azetidin-2-Ones and Related Compounds in MCF-7 and MDA-MB-231 Breast Cancer Cells” (Pharmaceuticals, 2023).

Read-outs that look alike come from different tables or passages of the source.

The term melting point denotes the temperature, or range, at which the solid turns liquid. In general, GI50 refers to the concentration that inhibits growth by half.

In data set [1] the test system is MCF-7 human breast cancer cells. Briefly: cells.
Protocol: All biochemical assays were performed in triplicate for the determination of mean values reported. The human breast carcinoma cell line MCF-7 was purchased from the European Collection of Animal Cell Cultures (ECACC) and was cultured in Eagle’s minimum essential medium with 10% fetal bovine serum, 2 mM L-glutamine and 100 μg/mL penicillin/streptomycin. The medium was supplemented with 1% non-essential amino acids. […] All cells were sub-cultured 3 times/week by trypsinisation.
Cells were seeded at a density of 5 × 10^3 cells/well (MCF-7) in triplicate in 96-well plates. […] Cell proliferation for MCF-7 and MDA-MB-231 cells was analysed using the Alamar Blue assay (Invitrogen Corp.). […] Experiments were performed in triplicate on at least three separate occasions.
Data set [2] deals with purified bovine brain tubulin. Briefly: Tubulin polymerization assay (light scattering, BK006 kit). The format is biochemical. The following applies: compound at 10 μM; for Fold Reduction in Vmax: relative to vehicle. The protocol:
Tubulin polymerization was monitored using the BK006 kit obtained from Cytoskeleton Inc. (Denver, CO, USA). The values reported represent the average values determined from two independent assays. Purified bovine brain tubulin (>99%, 3 mg/mL) in buffer containing PIPES (80 mM, pH 6.9), EGTA (0.5 mM), MgCl2 (2 mM), GTP (1 mM) and glycerol (10%) was incubated at 37 °C in vehicle (1% DMSO or EtOH (v/v) in dH2O) or with compounds 9h, 9q, 9s, 10h, 10p, 10r, 11h, 11p, 11r, 17f (all at 10 µM concentration); CA-4 (10 μM) was used as control. In this assay, light scattering is related to the concentration of polymerised microtubules produced. Tubulin assembly was monitored turbidimetrically at 340 nm at 37 °C in a Spectramax 340 PC spectrophotometer (Molecular Devices, Sunnyvale, CA, USA).

The test system of data set [3] is NCI 60 human cancer cell line panel. Briefly: NCI 60 cell line screen (SRB), panel values. To be noted: Homo sapiens, 60 cell.
Another data set relates to MDA-MB-231/ATCC. Briefly: NCI-60 SRB screen, breast cancer. The format is cell-based, human. The following applies: Homo sapiens, MDA-MB-231, 48 h, read-out: Antiproliferative Activity IC50.
Where [4] appears, read: MCF7, 72 h, read-out: Antiproliferative Activity IC50, MCF-7, 72 h, eight concentrations 1–50 μM, mean ± SEM, Table 2.
[5] abbreviates: MCF7, read-out: Antiproliferative Activity IC50.
The mark [6] stands for this setting: MCF7, read-out: Antiproliferative Activity IC50, MCF-7, eight concentrations 0.001–50 μM, mean ± SEM, Table 4.
The mark [7] stands for this setting: MCF7, 72 h, read-out: Antiproliferative Activity IC50, MCF-7, 72 h, eight concentrations (0.001–50 mM [sic]), mean ± SEM, Table 5.

Take `COC(=O)C1=C(C(=O)OC)C(C2C(=O)N(c3cc(OC)c(OC)c(OC)c3)C2c2cccc3ccccc23)CC=C1` (single isomer, unassigned) [22a, Dimethyl-6-(1-(3,4,5-trimethoxyphenyl)-2-(naphthalen-1-yl)-4-oxoazetidin-3-yl)cyclohexa-1,3-diene-1,2-dicarboxylate]: the melting point was 120 to 122 °C.

Regarding `C=C(C)C1C(=O)N(c2cc(OC)c(OC)c(OC)c2)C1c1ccc([N+](=O)[O-])cc1` (centres unmarked) [9a, 4-(4-Nitrophenyl)-1-(3,4,5-trimethoxyphenyl)-3-(prop-1-en-2-yl)azetidin-2-one], the melting point fell in the range of 129 to 130 °C. Also, the IC50 in data set [1] (setting [4]) was found to be 4960 ± 690 nM.

The compound `C=C(C)C1C(=O)N(c2cc(OC)c(OC)c(OC)c2)C1c1ccc(F)cc1` (centres unmarked) [9d, 4-(4-Fluorophenyl)-1-(3,4,5-trimethoxyphenyl)-3-(prop-1-en-2-yl)azetidin-2-one] registered a melting point of 99 to 100 °C. In addition, the IC50 in data set [1] (setting [4]) amounted to 691 ± 100 nM.

Turning to `C=C(C)C1C(=O)N(c2cc(OC)c(OC)c(OC)c2)C1c1ccccc1` (centres unmarked) [9f, 4-Phenyl-1-(3,4,5-trimethoxyphenyl)-3-(prop-1-en-2-yl)azetidin-2-one], the melting point is 108 to 109 °C. The IC50 in data set [1] (setting [4]) stood at 494 ± 140 nM.

Compound `C=C(C)C1C(=O)N(c2cc(OC)c(OC)c(OC)c2)C1c1ccc(OCCCC)cc1` (centres unmarked) [9j, 4-(4-Butoxyphenyl)-1-(3,4,5-trimethoxyphenyl)-3-(prop-1-en-2-yl)azetidine-2-one] came in with a melting point of 55 to 57 °C.

Turning to `C=C(C)C1C(=O)N(c2cc(OC)c(OC)c(OC)c2)C1c1ccc(Oc2ccccc2)cc1` (centres unmarked) [9k, 4-(4-Phenoxyphenyl)-1-(3,4,5-trimethoxyphenyl)-3-(prop-1-en-2-yl)azetidin-2-one], the melting point was 126 to 127 °C.

The compound `C=C(C)C1C(=O)N(c2ccc(OC)cc2)C1c1ccccc1` (centres unmarked) [9w, 1-(4-Methoxyphenyl)-4-phenyl-3-(prop-1-en-2-yl)azetidin-2-one] yielded a melting point of 111 to 113 °C. Further, in data set [1] (setting [4]), the IC50 worked out at 33 ± 5 nM.

Turning to `C=C(C)C1C(=O)N(c2ccccc2)C1c1ccc(OC)cc1` (centres unmarked) [9x, 4-(4-Methoxyphenyl)-1-phenyl-3-(prop-1-en-2-yl)azetidin-2-one], the melting point fell in the range of 104 to 105 °C.

Consider `C=CCC1C(=O)N(c2cc(OC)c(OC)c(OC)c2)C1c1ccc(F)cc1` (centres unmarked) [10d, 3-Allyl-4-(4-fluorophenyl)-1-(3,4,5-trimethoxyphenyl) azetidin-2-one], for which the melting point fell in the range of 89 to 90 °C. For the same compound, the IC50 in data set [1] (setting [5]) worked out at 33800 ± 9040 nM.

As for `C=C/C=C/C1C(=O)N(c2cc(OC)c(OC)c(OC)c2)C1c1ccc([N+](=O)[O-])cc1` (centres unmarked) [11a, (E)-3-(Buta-1,3-dien-1-yl)-4-(4-nitrophenyl)-1-(3,4,5-trimethoxyphenyl)azetidin-2-one], the melting point was 133 to 134 °C. The IC50 in data set [1] (setting [6]) was determined as 784 ± 130 nM.

As to `C=C/C=C/C1C(=O)N(c2cc(OC)c(OC)c(OC)c2)C1c1ccc(Cl)cc1` (centres unmarked) [11b, (E)-3-(Buta-1,3-dien-1-yl)-4-(4-chlorophenyl)-1-(3,4,5-trimethoxyphenyl)azetidin-2-one], the melting point fell in the range of 145 to 147 °C. Also, the IC50 in data set [1] (setting [6]) was determined as 315 ± 40 nM.

For the compound `C=C/C=C/C1C(=O)N(c2cc(OC)c(OC)c(OC)c2)C1c1ccc(Br)cc1` (centres unmarked) [11c, (E)-4-(4-Bromophenyl)-3-(buta-1,3-dien-1-yl)-1-(3,4,5-trimethoxyphenyl)azetidin-2-one], the melting point was in the range of 153 to 155 °C. Besides, in data set [1] (setting [6]), the IC50 was found to be 428 ± 42 nM.

In the case of `C=C/C=C/C1C(=O)N(c2cc(OC)c(OC)c(OC)c2)C1c1ccc(F)cc1` (centres unmarked) [11d, (E)-3-(Buta-1,3-dien-1-yl)-4-(4-fluorophenyl)-1-(3,4,5-trimethoxyphenyl)azetidin-2-one], the melting point was 137 to 139 °C. Moreover, the IC50 in data set [1] (setting [6]) is 3210 ± 620 nM.

Compound `C=C/C=C/C1C(=O)N(c2cc(OC)c(OC)c(OC)c2)C1c1ccccc1` (centres unmarked) [11f, (E)-3-(Buta-1,3-dien-1-yl)-4-phenyl-1-(3,4,5-trimethoxyphenyl)azetidin-2-one] gave a melting point of 90 to 93 °C. The IC50 in data set [1] (setting [6]) turned out to be 19400 ± 4030 nM.

`C=C/C=C/C1C(=O)N(c2cc(OC)c(OC)c(OC)c2)C1c1ccc(OCC)cc1` (centres unmarked) [11i, (E)-3-(Buta-1,3-dien-1-yl)-4-(4-ethoxyphenyl)-1-(3,4,5-trimethoxyphenyl)-azetidin-2-one] returned a melting point of 73 to 75 °C. In data set [1] (setting [6]), the IC50 was found to be 261 ± 50 nM.

`C=C/C=C/C1C(=O)N(c2cc(OC)c(OC)c(OC)c2)C1c1ccc(Oc2ccccc2)cc1` (centres unmarked) [11k, (E)-3-(Buta-1,3-dien-1-yl)-4-(4-phenoxyphenyl)-1-(3,4,5-trimethoxyphenyl)azetidin-2-one] showed a melting point of 119 to 120 °C. Moreover, the IC50 in data set [1] (setting [6]) turned out to be 37900 ± 3800 nM.

`C=C/C=C/C1C(=O)N(c2cc(OC)c(OC)c(OC)c2)C1c1cccc2ccccc12` (centres unmarked) [11m, (E)-3-(Buta-1,3-dien-1-yl)-4-(naphthalen-1-yl)-1-(3,4,5-trimethoxyphenyl)azetidin-2-one]: the melting point is 113 to 114 °C. Besides, in data set [1] (setting [6]), the IC50 is 576 ± 100 nM.

Consider `C=C/C=C/C1C(=O)N(c2cc(OC)c(OC)c(OC)c2)C1c1ccc(OC)c(O)c1` (centres unmarked) [11p, (E)-3-(Buta-1,3-dien-1-yl)-4-(3-hydroxy-4-methoxyphenyl)-1-(3,4,5-trimethoxyphenyl)azetidin-2-one], for which, in data set [2], the “Fold Reduction in Vmax” value was 1.1. The IC50 in data set [1] (setting [5]) was determined as 61 ± 8 nM; with MDA-MB-231/ATCC, 113 nM. In data set [3] (read-out: Mean GI50, mean over all NCI 60 cell lines), the GI50 worked out at 288 nM. The CC50 in data set [3] (read-out: Mean LC50) is 91200 nM. In addition, the IC (TGI (total growth inhibition)) in data set [3] (read-out: Mean TGI) came to 31600 nM.

The compound `C=C/C=C/C1C(=O)N(c2cc(OC)c(OC)c(OC)c2)C1c1ccc(OC)c([N+](=O)[O-])c1` (centres unmarked) [11q, (E)-3-(Buta-1,3-dien-1-yl)-4-(4-methoxy-3-nitrophenyl)-1-(3,4,5-trimethoxyphenyl)azetidin-2-one] registered a melting point of 88 to 90 °C. Besides, in data set [1] (setting [6]), the IC50 worked out at 511 ± 90 nM.

In turn, `COc1ccc(C2C(CC=Cc3ccccc3)C(=O)N2c2cc(OC)c(OC)c(OC)c2)cc1` (centres unmarked) [17a, 3-Cinnamyl-4-(4-methoxyphenyl)-1-(3,4,5-trimethoxyphenyl)azetidin-2-one] had a melting point of 103 to 104 °C. In addition, in data set [1] (setting [7]), the IC50 came out at 332 ± 40 nM.

As for `CCOC(=O)CC1C(=O)N(c2cc(OC)c(OC)c(OC)c2)C1c1ccc(OC)cc1` (centres unmarked) [17f, Ethyl-2-(1-(3,4,5-trimethoxyphenyl)-2-(4-methoxyphenyl)-4-oxoazetidin-3-yl)acetate], the Vmax in data set [2] (37 °C, 340 nm) is given as 0.0038 mOD/min. Besides, in data set [2], the “Fold Reduction in Vmax” value was determined as 2.2. For the same compound, the IC50 in data set [1] (setting [7]) came to 35 ± 3 nM.

`COc1cc(N2C(=O)C(C3C=CCC4C(=O)N(c5ccccc5)C(=O)C43)C2c2ccc(Cl)cc2)cc(OC)c1OC` (centres unmarked) [21a, 4-(2-(4-Chlorophenyl)-1-(3,4,5-trimethoxyphenyl)-4-oxoazetidin-3-yl)-3a,4,7,7a-tetrahydro-2-phenyl-2H-isoindole-1,3-dione] registered a melting point of 208 to 210 °C. Moreover, in data set [1] (setting [7]), the IC50 is 106000 ± 13900 nM.

`COc1cc(N2C(=O)C(C3C=CCC4C(=O)OC(=O)C43)C2c2ccc(Br)cc2)cc(OC)c1OC` (centres unmarked) [21b, 4-(2-(4-Bromophenyl)-1-(3,4,5-trimethoxyphenyl)-4-oxoazetidin-3-yl)-3a,4,7,7a-tetrahydroisobenzofuran-1,3-dione] had a melting point of 242 to 244 °C. In addition, in data set [1] (setting [7]), the IC50 came to 96200 ± 13500 nM.

Regarding `CCCCOc1ccc(C2C(C3C=CCC4C(=O)N(c5ccccc5)C(=O)C43)C(=O)N2c2cc(OC)c(OC)c(OC)c2)cc1` (centres unmarked) [21c, 4-(2-(4-Butoxyphenyl)-4-oxo-1-(3,4,5-trimethoxyphenyl)azetidin-3-yl)-2-phenyl-3a,4,7,7a-tetrahydro-1H-isoindole-1,3(2H)-dione], the melting point was in the range of 163 to 164 °C. For the same compound, the IC50 in data set [1] (setting [7]) came out at 38600 ± 4900 nM.

In turn, `COc1ccc(C2C(C3C=CCC4C(=O)OC(=O)C43)C(=O)N2c2cc(OC)c(OC)c(OC)c2)cc1O` (centres unmarked) [21d, 3a,4,7,7a-Tetrahydro-4-(2-(3-hydroxy-4-methoxyphenyl)-1-(3,4,5-trimethoxyphenyl)-4-oxoazetidin-3-yl)isobenzofuran-1,3-dione] had a melting point of 224 to 225 °C. The IC50 in data set [1] (setting [7]) amounted to 91100 ± 14500 nM.

For the compound `COc1ccc(C2C(C=Cc3ccc(C(F)(F)F)cc3)C(=O)N2c2cc(OC)c(OC)c(OC)c2)cc1` (centres unmarked) [compound 19, 3-(4-(Trifluoromethyl)styryl)-1-(3,4,5-trimethoxyphenyl)-4-(4-methoxyphenyl)azetidin-2-one], the IC50 in data set [1] (setting [7]) stood at 7710 ± 780 nM.

Turning to `COc1cc(N2C(=O)C(CC3CO3)C2c2ccccc2)cc(OC)c1OC` (centres unmarked) [compound 20, 1-(3,4,5-Trimethoxyphenyl)-3-((oxiran-2-yl)methyl)-4-phenylazetidin-2-one], in data set [1] (setting [7]), the IC50 was 51500 ± 5460 nM.
